Patent US20220132898A1, “COMPOSITION COMPRISING TRANSGLYCOSYLATED STEVIOSIDE AND TRANSGLYCOSYLATED REBAUDIOSIDE A” (CJ CHEILJEDANG CORPORATION, priority 2019, published 2022)
Entries after “also recorded” stand apart in the source; their conditions may differ.

Key:
[1] = type: physicochemical
Description: The solubility of Rebaudioside A (RA), Stevioside (STV), α-1,6 transglucosylated Rebaudioside A (RA-Glu) of Example 1-1, and transglucosylated Stevioside (STV-Glu) was measured. In particular, the transglucosylated Stevioside was obtained by reacting Stevioside and sucrose in the presence of a glucosyltransferase in the same manner as in Example 1-1.
6 g of each of Rebaudioside A, Stevioside, transglucosylated Rebaudioside A, and transglucosylated Stevioside was mixed with 10 ml and then dissolved by sonication at 50° C. for 60 minutes. The resultant was incubated for 1 week in a water bath at 5° C., 15° C., 25° C., 35° C., 45° C., or 55° C. Thereafter, the resulting solution was centrifuged at 12000 rpm for 10 minutes, and 1 ml of the supernatant was collected and dried in an oven at 105° C. to measure the solubility.

[2] = Evaluation of actual sweetness and quality of sweetness by panels; type: in vivo; conditions: sample dissolved in water, evaluated by panels
Text: Two samples prepared in Example 1-1 above were independently dissolved in water and provided to panels for evaluation of actual sweetness and the quality of sweetness.

Substance | Solubility (%) [1] | solubility as compared to Stevioside and Rebaudioside A, respectively [1] | Actual Sweetness [2] | Quality of Sweetness [2]
transglucosylated Stevioside [STV-Glu] | ≥ 40↑ % | remarkably increased solubility |  | 
α-1,4 transglucosylated Rebaudioside A |  |  | 19 | Bitter taste is stronger than sweet taste, has greasy
α-1,6 transglucosylated Rebaudioside A [RA-Glu] | ≥ 40↑ % | remarkably increased solubility |  | better quality of sweetness; also recorded: Gives sweet taste in the beginning, has a bit of bitter
